Paper PMC12693396, “Discovery of Influenza Neuraminidase Inhibitors: Structure-Based Virtual Screening and Biological Evaluation of Novel Chemotypes” (Molecules, 2025)

Assays:
[1] = in vitro; conditions: human
[2] = target: recombinant Influenza A H1N1 (A/California/04/2009) neuraminidase (Influenza A virus (A/California/04/2009(H1N1)), UniProt C3W5S3); experiment: Fluorometric MUNANA neuraminidase inhibition assay (NA-Fluor kit); assay type: biochemical

Row | SMILES | CC50 at 24 h [1] | other results
1 | COc1cccc2[nH]cc(C(=O)O)c12 [Compound 4, 4-Methoxy-1H-indole-3-carboxylic acid] | 244 µM | –
2 | COc1ccc([C@H]2[C@@H](C(=O)O)c3ccccc3C(=O)N2Cc2ccc(Cl)cc2)cc1 [Compound 5, (3R,4S)-2-[(4-Chlorophenyl)methyl]-1,2,3,4-tetrahydro-3-(4-methoxyphenyl)-1-oxo-4-isoquinolinecarboxylic acid] | 152 µM | –
3 | O=C(O)CCC(=O)c1c[nH]c2ccccc12 [Compound 3, γ-Oxo-1H-indole-3-butanoic acid] | 671 µM | –
4 | CCOC(=O)C1=C[C@@H](OC(CC)CC)[C@H](NC(C)=O)[C@@H](N)C1 [oseltamivir, Oseltamivir phosphate, reference compound] | – | inhibition of NA activity ([2]; 0.1 µM): approximately 20%
5 | O=C(O)C1CCCN(C(=O)c2c[nH]c3ccccc23)C1 (stereo not shown) [Compound 1, 1-(1H-Indol-3-ylcarbonyl)-3-piperidinecarboxylic acid] | – | IC50 [2]: > 1000 µM; inhibition at 100 µM ([2]; read-out: mean inhibition of NA activity, at 100 µM): > 15%
6 | COc1cc2c(cc1OC)C(C(C)C)N(S(N)(=O)=O)CC2 (stereo not shown) [Compound 6, 3,4-Dihydro-6,7-dimethoxy-1-(1-methylethyl)-2(1H)-isoquinolinesulfonamide] | 534 µM | –
